Results reported in paper PMC10763615, “Identification and engineering of potent cyclic peptides with selective or promiscuous binding through biochemical profiling and bioinformatic data analysis” (RSC Chemical Biology, 2023).
Read-outs that look alike come from different tables or passages of the source. Positions of bridges follow the written chain, without caps; N, C: chain ends. Residues, ends and D or L forms follow the SMILES beside them.

Legend:
Type in all cases: binding
FGF-R1C ECD = target: T1, FGF-R1C ECD (Homo sapiens, UniProt P11362); experiment: biochemical; parameters: DNA constructs for the extracellular domain (ECD) of human FGF-; HPC4 (C); made in house; host or cells: HEK 293-6E
T1 sequence (P11362 22-376 limits assumed): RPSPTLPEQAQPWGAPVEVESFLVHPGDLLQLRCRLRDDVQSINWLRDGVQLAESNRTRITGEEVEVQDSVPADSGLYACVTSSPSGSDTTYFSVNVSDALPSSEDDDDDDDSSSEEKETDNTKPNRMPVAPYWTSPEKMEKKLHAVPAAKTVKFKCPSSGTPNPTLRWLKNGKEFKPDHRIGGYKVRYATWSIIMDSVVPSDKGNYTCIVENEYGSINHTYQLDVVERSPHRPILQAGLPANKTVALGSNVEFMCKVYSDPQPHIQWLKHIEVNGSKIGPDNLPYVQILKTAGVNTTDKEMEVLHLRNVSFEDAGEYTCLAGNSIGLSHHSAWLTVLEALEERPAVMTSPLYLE
Description: (§1) KD affinity binding measurements were obtained by biolayer interferometry (BLI) instruments (Fortebio Octet HTX, or Sartorius Octet RH16 using either 8 or 16 channel mode.
(§2) For single concentration binding experiments, 50 μM peptide stocks in folding buffer were diluted 1:50 in mRNA display selection buffer (PBS pH7.4 supplemented with 0.05% Tween-20 and 0.01% BSA) in either a 96 well black plate, or a 384 well tilted bottom microplate (ForteBio). Biotinylated FGF-R protein was loaded onto Streptavidin-functionalised biosensors (ForteBio) and immersed into ~1 μM peptide to obtain association kinetics curves. Dissociation kinetics curves were obtained by subsequent immersion of ligand-associated loaded sensors into a 1:50 dilution of folding buffer in mRNA display selection buffer. Fitted KD data was adjusted for concentration as determined by UPLC-CAD.
(§3) For accurate multi-concentration KD determination, dilution series of each peptide were made, and association and dissociation kinetics curves were obtained as above for each concentration to fit a multi-point KD binding model. Data collection and analysis was performed using the Octet Instrument Control […]
(§4) concentration assay kinetics curves shown in supplementary Figure S 19-24.

FGF-R3C ECD = target: T2, FGF-R3C ECD (Homo sapiens, UniProt P22607); experiment: biochemical; parameters: DNA constructs for the extracellular domain (ECD) of human FGF-; HPC4 (C); made in house; host or cells: HEK 293-6E
T2 sequence (P22607 23-375 limits assumed): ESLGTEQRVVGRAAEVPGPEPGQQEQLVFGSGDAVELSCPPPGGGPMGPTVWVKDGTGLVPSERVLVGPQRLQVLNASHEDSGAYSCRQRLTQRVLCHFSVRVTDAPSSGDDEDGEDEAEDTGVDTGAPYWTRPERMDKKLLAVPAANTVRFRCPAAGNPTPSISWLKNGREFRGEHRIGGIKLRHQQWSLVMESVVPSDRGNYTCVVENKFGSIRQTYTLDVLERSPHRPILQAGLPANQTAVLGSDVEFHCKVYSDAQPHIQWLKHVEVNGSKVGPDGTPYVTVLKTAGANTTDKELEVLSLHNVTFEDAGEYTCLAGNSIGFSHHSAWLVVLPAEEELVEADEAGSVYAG
Description: as §1, §2, §3, §4

FGF-R4 ECD = target: T3, FGF-R4 ECD (Homo sapiens, UniProt P22455); experiment: single concentration BLI of crude peptides; settings: read-out: KD (4)
T3 construct: DNA constructs for the extracellular domain (ECD) of human FGF-; HPC4 (C); made in house; host or cells: HEK 293-6E
T3 sequence (P22455 22-369 limits assumed): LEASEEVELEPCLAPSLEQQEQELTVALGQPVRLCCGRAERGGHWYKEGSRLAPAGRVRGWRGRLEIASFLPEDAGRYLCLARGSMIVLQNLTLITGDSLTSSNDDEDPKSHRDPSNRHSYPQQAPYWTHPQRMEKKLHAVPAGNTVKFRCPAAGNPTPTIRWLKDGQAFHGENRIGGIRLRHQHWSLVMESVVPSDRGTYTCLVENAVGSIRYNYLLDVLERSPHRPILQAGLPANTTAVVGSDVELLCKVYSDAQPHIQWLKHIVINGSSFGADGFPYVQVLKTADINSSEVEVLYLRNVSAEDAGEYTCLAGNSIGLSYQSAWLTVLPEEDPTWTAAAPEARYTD
Description: as §1
as §2, with “UPLC-CAD. […]” for “UPLC-CAD.”

[1] = crude T18 selection 1 (1:1:1) peptides, single concentration BLI (Table S4)

SMILES	Kd (FGF-R1C ECD)	Kd (FGF-R3C ECD)	Kd (FGF-R4 ECD; [1])	Kd (FGF-R4 ECD; crude NNK peptides, single concentration BLI (Table S3))
CC[C@H](C)[C@@H]1NC(=O)[C@H](Cc2ccc(O)cc2)NC(=O)[C@H](Cc2c[nH]c3ccccc23)NC(=O)[C@H](CCCCN)NC(=O)[C@H](C(C)C)NC(=O)[C@H](Cc2ccccc2)NC(=O)[C@H](CCCCN)NC(=O)[C@H](CC(=O)O)NC(=O)[C@@H](NC(=O)[C@H](CCSC)NC(C)=O)CSSC[C@@H](C(=O)NCC(=O)N[C@@H](CO)C(=O)NCC(=O)N[C@@H](CO)C(=O)N[C@@H](CCC(=O)O)C(=O)N[C@@H](CCC(=O)O)C(=O)NCC(=O)N[C@@H](CO)C(=O)NCC(=O)N[C@@H](CO)C(=O)N[C@@H](CC(=O)O)C(=O)N[C@@H](Cc2ccc(O)cc2)C(=O)N[C@@H](CCCCN)C(=O)N[C@@H](CC(=O)O)C(=O)N[C@@H](CC(=O)O)C(=O)N[C@@H](CC(=O)O)C(=O)N[C@@H](CC(=O)O)C(=O)N[C@@H](CCCCN)C(N)=O)NC(=O)[C@H](Cc2c[nH]cn2)NC(=O)[C@H](CCCNC(=N)N)NC(=O)[C@H](Cc2ccccc2)NC(=O)[C@H](C(C)C)NC1=O (Ac-MCDKFVKWYIVFRHCGSGSEEGSGSDYKDDDDK-NH2; disulfide 2-15)	> 10 µM	> 10 µM	0.001 µM	
CC[C@H](C)[C@@H]1NC(=O)[C@H](CC(C)C)NC(=O)[C@H](Cc2ccccc2)NC(=O)[C@H](Cc2ccc(O)cc2)NC(=O)[C@H](CCCCN)NC(=O)[C@H](C(C)C)NC(=O)[C@H](CCC(=O)O)NC(=O)[C@@H](NC(=O)[C@H](CCSC)NC(C)=O)CSSC[C@@H](C(=O)NCC(=O)N[C@@H](CO)C(=O)NCC(=O)N[C@@H](CO)C(=O)N[C@@H](CC(=O)O)C(=O)N[C@@H](Cc2ccc(O)cc2)C(=O)N[C@@H](CCCCN)C(=O)N[C@@H](CC(=O)O)C(=O)N[C@@H](CC(=O)O)C(=O)N[C@@H](CC(=O)O)C(=O)N[C@@H](CC(=O)O)C(=O)N[C@@H](CCCCN)C(N)=O)NC(=O)[C@H](Cc2c[nH]c3ccccc23)NC(=O)[C@H](CCCNC(=N)N)NC(=O)[C@H](CCCCN)NC(=O)[C@H](Cc2c[nH]c3ccccc23)NC1=O (Ac-MCEVKYFLIWKRWCGSGSDYKDDDDK-NH2; disulfide 2-14)	0.65 µM	> 10 µM	0.015 µM	
CSCC[C@H](NC(C)=O)C(=O)N[C@H]1CSSC[C@@H](C(=O)NCC(=O)N[C@@H](CO)C(=O)NCC(=O)N[C@@H](CO)C(=O)N[C@@H](CCC(=O)O)C(=O)N[C@@H](CCC(=O)O)C(=O)NCC(=O)N[C@@H](CO)C(=O)NCC(=O)N[C@@H](CO)C(=O)N[C@@H](CC(=O)O)C(=O)N[C@@H](Cc2ccc(O)cc2)C(=O)N[C@@H](CCCCN)C(=O)N[C@@H](CC(=O)O)C(=O)N[C@@H](CC(=O)O)C(=O)N[C@@H](CC(=O)O)C(=O)N[C@@H](CC(=O)O)C(=O)N[C@@H](CCCCN)C(N)=O)NC(=O)[C@H](CCCNC(=N)N)NC(=O)[C@H](CCC(N)=O)NC(=O)[C@H](Cc2c[nH]cn2)NC(=O)[C@H](Cc2c[nH]c3ccccc23)NC(=O)[C@H](CC(C)C)NC(=O)[C@H](CCCCN)NC(=O)[C@H](Cc2c[nH]c3ccccc23)NC(=O)[C@H](Cc2ccc(O)cc2)NC(=O)[C@H](Cc2ccccc2)NC(=O)[C@H](CC(C)C)NC(=O)[C@H](Cc2c[nH]cn2)NC(=O)[C@H](CCCNC(=N)N)NC1=O (Ac-MCRHLFYWKLWHQRCGSGSEEGSGSDYKDDDDK-NH2; disulfide 2-15)	> 10 µM	> 10 µM	0.002 µM	
CSCC[C@H](NC(C)=O)C(=O)N[C@H]1CSSC[C@@H](C(=O)NCC(=O)N[C@@H](CO)C(=O)NCC(=O)N[C@@H](CO)C(=O)N[C@@H](CC(=O)O)C(=O)N[C@@H](Cc2ccc(O)cc2)C(=O)N[C@@H](CCCCN)C(=O)N[C@@H](CC(=O)O)C(=O)N[C@@H](CC(=O)O)C(=O)N[C@@H](CC(=O)O)C(=O)N[C@@H](CC(=O)O)C(=O)N[C@@H](CCCCN)C(N)=O)NC(=O)[C@H](CC(C)C)NC(=O)[C@H](CCCNC(=N)N)NC(=O)[C@H](CCC(=O)O)NC(=O)[C@H](Cc2c[nH]c3ccccc23)NC(=O)[C@H](Cc2ccc(O)cc2)NC(=O)[C@H](Cc2ccccc2)NC(=O)[C@H](CO)NC(=O)[C@H](Cc2c[nH]cn2)NC(=O)[C@H](CCC(N)=O)NC(=O)[C@H](CC(=O)O)NC(=O)[C@H](Cc2ccc(O)cc2)NC(=O)[C@H](Cc2c[nH]c3ccccc23)NC1=O (Ac-MCWYDQHSFYWERLCGSGSDYKDDDDK-NH2; disulfide 2-15)	> 10 µM	> 10 µM	> 10 µM	
CSCC[C@H](NC(C)=O)C(=O)N[C@H]1CSSC[C@@H](C(=O)NCC(=O)N[C@@H](CO)C(=O)NCC(=O)N[C@@H](CO)C(=O)N[C@@H](CCC(=O)O)C(=O)N[C@@H](CCC(=O)O)C(=O)NCC(=O)N[C@@H](CO)C(=O)NCC(=O)N[C@@H](CO)C(=O)N[C@@H](CC(=O)O)C(=O)N[C@@H](Cc2ccc(O)cc2)C(=O)N[C@@H](CCCCN)C(=O)N[C@@H](CC(=O)O)C(=O)N[C@@H](CC(=O)O)C(=O)N[C@@H](CC(=O)O)C(=O)N[C@@H](CC(=O)O)C(=O)N[C@@H](CCCCN)C(N)=O)NC(=O)[C@H](Cc2c[nH]cn2)NC(=O)[C@H](Cc2ccccc2)NC(=O)[C@H](CC(C)C)NC(=O)[C@H](CCCCN)NC(=O)[C@H](Cc2c[nH]c3ccccc23)NC(=O)[C@H](Cc2ccc(O)cc2)NC(=O)[C@H](Cc2ccc(O)cc2)NC(=O)[C@H](CC(C)C)NC(=O)[C@H](Cc2c[nH]cn2)NC(=O)[C@H](CCCNC(=N)N)NC(=O)CNC(=O)[C@H]([C@@H](C)O)NC1=O (Ac-MCTGRHLYYWKLFHCGSGSEEGSGSDYKDDDDK-NH2; disulfide 2-15)	> 10 µM	> 10 µM	0.01 µM	
CC[C@H](C)[C@@H]1NC(=O)[C@@H]2CCCN2C(=O)[C@H](CC(C)C)NC(=O)[C@@H]2CCCN2C(=O)[C@H](Cc2c[nH]c3ccccc23)NC(=O)[C@@H]2CCCN2C(=O)[C@H](Cc2ccccc2)NC(=O)[C@H](CCCCN)NC(=O)[C@H]([C@@H](C)O)NC(=O)[C@@H](NC(=O)[C@@H](N)CCSC)CSSC[C@@H](C(=O)NCC(=O)N[C@@H](CO)C(=O)NCC(=O)N[C@@H](CO)C(=O)N[C@@H](CC(=O)O)C(=O)N[C@@H](Cc2ccc(O)cc2)C(=O)N[C@@H](CCCCN)C(=O)N[C@@H](CC(=O)O)C(=O)N[C@@H](CC(=O)O)C(=O)N[C@@H](CC(=O)O)C(=O)N[C@@H](CC(=O)O)C(=O)N[C@@H](CCCCN)C(N)=O)NC(=O)[C@H](C)NC(=O)[C@H](Cc2c[nH]c3ccccc23)NC(=O)[C@H](Cc2ccccc2)NC1=O (H-MCTKFPWPLPIFWACGSGSDYKDDDDK-NH2; disulfide 2-15)	0.545 µM	> 10 µM		0.346 µM
